Results published in patent publication US9155778B2, “Tripeptides that down regulate the activity of plasma membrane transporters including sodium-D-glucose cotransporter SgIt1” (JULIUS-MAXMILLIANS-UNIVERSITAT WURZBURG, priority 2005, dated 2015).

Experiments:
[1] = target: T1, hPEPT1 (Homo sapiens, UniProt P46059); assay: Electrogenic peptide transport by hPEPT1 in oocytes, two-electrode voltage clamp; assay type: cell-based; details: pH 6.5
T1 construct: expressed in transfected cells; host or cells: Xenopus laevis oocytes (30 ng cRNA per oocyte)
T1 sequence (P46059 1-708): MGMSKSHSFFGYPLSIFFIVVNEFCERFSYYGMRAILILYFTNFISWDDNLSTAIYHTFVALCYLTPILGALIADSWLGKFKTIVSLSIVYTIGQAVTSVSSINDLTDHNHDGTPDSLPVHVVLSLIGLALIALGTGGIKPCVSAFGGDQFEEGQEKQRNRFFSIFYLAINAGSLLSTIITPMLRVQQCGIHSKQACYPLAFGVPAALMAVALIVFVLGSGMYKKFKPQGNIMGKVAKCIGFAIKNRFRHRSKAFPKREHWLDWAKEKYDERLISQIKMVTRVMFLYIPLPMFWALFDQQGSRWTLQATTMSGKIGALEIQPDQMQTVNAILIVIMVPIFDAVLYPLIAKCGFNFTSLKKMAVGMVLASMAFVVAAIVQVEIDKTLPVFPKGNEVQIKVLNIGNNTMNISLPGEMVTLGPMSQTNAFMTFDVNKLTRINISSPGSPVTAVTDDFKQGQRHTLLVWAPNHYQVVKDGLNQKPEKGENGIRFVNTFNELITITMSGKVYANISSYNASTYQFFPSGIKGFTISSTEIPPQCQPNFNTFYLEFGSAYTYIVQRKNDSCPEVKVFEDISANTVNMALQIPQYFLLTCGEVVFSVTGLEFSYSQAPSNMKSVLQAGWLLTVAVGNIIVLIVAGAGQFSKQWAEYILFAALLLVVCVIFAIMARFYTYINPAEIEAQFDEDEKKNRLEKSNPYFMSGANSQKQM
Method: (§1) The oocytes were incubated for three days at 16° C. in ORi buffer (in mM: 5 HEPES-Tris, pH 7.4, 100 NaCl, 3 KCl, 2 CaCl2, and 1 MgCl2). […] The oocytes were superfused with Ori buffer titrated to pH 6.5, the membrane potential of the oocytes was clamped to −40 mV, and inward current induced by superfusion with Ori buffer (pH 6.5) containing 5 mM of a control dipeptide or 5 mM of the tested tripeptide was measured. • (D) Expression and Purification of hRS1

[2] = target: T2, hSGLT1 (Homo sapiens, UniProt P13866); assay: hSGLT1 expressed [14C]AMG uptake in Xenopus oocytes after injection of hRS1 protein or peptides; assay type: cell-based
T2 construct: expressed in transfected cells; host or cells: Xenopus laevis oocytes (cRNA injection)
T2 sequence (P13866 1-664): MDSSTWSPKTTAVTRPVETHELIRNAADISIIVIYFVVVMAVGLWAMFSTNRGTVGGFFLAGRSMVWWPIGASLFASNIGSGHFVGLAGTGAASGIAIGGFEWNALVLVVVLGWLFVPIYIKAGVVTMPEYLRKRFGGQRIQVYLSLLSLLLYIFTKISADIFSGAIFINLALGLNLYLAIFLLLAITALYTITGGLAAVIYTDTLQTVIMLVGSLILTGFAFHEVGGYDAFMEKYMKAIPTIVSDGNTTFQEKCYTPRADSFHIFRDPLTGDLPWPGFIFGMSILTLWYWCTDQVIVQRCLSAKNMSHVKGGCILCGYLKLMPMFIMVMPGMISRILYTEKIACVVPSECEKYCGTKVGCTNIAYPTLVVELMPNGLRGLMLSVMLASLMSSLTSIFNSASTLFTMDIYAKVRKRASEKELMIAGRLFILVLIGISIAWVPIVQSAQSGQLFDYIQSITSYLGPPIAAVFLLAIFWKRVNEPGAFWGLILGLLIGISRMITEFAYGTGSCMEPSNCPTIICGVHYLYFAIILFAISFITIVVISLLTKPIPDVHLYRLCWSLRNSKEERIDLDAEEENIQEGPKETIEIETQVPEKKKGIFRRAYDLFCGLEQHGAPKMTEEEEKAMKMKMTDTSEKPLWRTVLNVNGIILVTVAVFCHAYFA

[3] = target: T3, rbSGLT1 (Oryctolagus cuniculus, UniProt P11170); assay: rbSGLT1 expressed [14C]AMG uptake in oocytes after peptide injection; assay type: cell-based, rabbit; details: 50 nl containing 3 mM of each peptide, 30 min, 50 μM [14C]AMG; compared with hSGLT1
T3 construct: expressed in transfected cells; host or cells: Xenopus laevis oocytes (cRNA injection)
T3 sequence (P11170 1-662): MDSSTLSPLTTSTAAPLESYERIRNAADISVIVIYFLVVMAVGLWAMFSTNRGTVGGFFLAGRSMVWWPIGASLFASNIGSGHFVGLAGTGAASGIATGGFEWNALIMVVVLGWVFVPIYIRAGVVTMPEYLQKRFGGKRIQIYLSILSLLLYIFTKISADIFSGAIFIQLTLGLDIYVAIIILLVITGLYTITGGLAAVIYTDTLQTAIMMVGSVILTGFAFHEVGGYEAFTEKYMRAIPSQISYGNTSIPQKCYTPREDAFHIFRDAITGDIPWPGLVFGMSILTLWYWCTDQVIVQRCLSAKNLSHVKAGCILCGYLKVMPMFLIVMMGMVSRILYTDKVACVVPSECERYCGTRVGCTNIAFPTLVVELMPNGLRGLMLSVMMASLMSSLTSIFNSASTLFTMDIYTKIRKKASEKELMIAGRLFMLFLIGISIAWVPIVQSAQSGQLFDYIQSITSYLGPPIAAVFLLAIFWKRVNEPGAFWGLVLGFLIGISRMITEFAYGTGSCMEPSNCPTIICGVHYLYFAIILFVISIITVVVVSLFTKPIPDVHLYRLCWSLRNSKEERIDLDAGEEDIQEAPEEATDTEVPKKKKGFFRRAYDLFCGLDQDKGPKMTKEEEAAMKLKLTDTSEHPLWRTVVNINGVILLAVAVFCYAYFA
Method: as §1
To develop drugs on the basis of the identified peptides animal models are required.

[4] = target: hOCT2 (Homo sapiens, UniProt O15244); details: intracellular AMG 0.1 mM, <0.01 mM or 10 mM
Chain of hOCT2 (O15244 whole entry): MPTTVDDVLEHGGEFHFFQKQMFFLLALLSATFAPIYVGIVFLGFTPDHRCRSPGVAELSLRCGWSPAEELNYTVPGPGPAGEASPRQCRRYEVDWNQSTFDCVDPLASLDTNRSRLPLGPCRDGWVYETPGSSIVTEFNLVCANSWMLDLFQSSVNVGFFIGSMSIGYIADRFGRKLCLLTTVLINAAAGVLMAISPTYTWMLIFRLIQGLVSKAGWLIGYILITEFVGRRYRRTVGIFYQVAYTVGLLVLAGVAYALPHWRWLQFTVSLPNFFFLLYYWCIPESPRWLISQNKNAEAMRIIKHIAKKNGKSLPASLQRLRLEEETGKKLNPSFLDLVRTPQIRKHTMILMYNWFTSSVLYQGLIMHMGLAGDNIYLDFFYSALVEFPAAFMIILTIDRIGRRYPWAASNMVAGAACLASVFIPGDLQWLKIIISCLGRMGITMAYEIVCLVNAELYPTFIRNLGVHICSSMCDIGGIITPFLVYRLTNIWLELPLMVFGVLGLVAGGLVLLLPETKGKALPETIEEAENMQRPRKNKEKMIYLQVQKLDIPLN
Method: Corresponding measurements were performed in the presence of intracellular AMG concentrations of 0.1 mM, <0.01 mM or 10 mM.

[5] = drinking water pH 6.0 with 10 mM QCP, 2 months, standard chow or sugar low diet
From the text: The body weight development with and without peptide treatment is compared over 2 months. […] In corresponding experiments, rabbits are to be employed.

[6] = target: T2, hSGLT1; assay: [14C]AMG uptake in oocytes after incubation with tripeptide in the medium; assay type: cell-based; details: pH 6.5
Method: In a different experimental setup, oocytes were injected with SGLT1 cRNA (2.5 ng per oocyte) or with hSGLT1 cRNA (2.5 ng per oocyte) plus hPEPT1 cRNA (10 ng per oocyte) and the oocytes were incubated 3 days for expression. Thereafter the oocytes were incubated 30 min with Ori buffer adjusted to pH 6.5 or with Ori buffer adjusted to pH 6.5 containing 3 mM of the tested tripeptide. Thereafter oocytes were washed with Ori buffer (pH 7.4) and uptake of [^14C]AMG was measured. • (F) Measurements of [^14C]AMG Uptake
Uptake measurements were performed as described (Veyhl (2003), J. Membrane Biol., 196, 71-81). Oocytes were incubated for 15 min at room temperature in ORi buffer containing 50 μM [^14C]AMG without or with 100 μM of the SGLT1 inhibitor phlorizin. The uptake was blocked and oocytes were washed with ice cold Ori buffer containing 100 μM phlorizin. Radioactivity in the oocytes was measured by liquid scintillation counting.
Thereafter the oocytes were washed with neutral Ori buffer and the hSGLT1 expressed uptake of 50 μM [^14C]AMG was measured (FIG. 7). […] Incubation of oocytes expressing hSGLT1 plus hPEPT1 with PCQ had no effect on the expressed uptake of [^14C]AMG.

[7] = tested on: sodium dependent amino acid transporters; details: 60 min, pH 6.5, 3 mM QCP; 10 mM amino acids
Method: Walls of small intestinal mucosa from mice are inserted into an Ussing chamber and transepitehial currents are measured that are induced by addition of 10 mM of various amino acids to the mucosal side.

[8] = target: SGLT1 (Mus musculus, UniProt Q8C3K6); details: 60 min pre-incubation, pH 6.5, 3 mM QCP, 0.1 mM D-glucose
Chain of SGLT1 (Q8C3K6 whole entry): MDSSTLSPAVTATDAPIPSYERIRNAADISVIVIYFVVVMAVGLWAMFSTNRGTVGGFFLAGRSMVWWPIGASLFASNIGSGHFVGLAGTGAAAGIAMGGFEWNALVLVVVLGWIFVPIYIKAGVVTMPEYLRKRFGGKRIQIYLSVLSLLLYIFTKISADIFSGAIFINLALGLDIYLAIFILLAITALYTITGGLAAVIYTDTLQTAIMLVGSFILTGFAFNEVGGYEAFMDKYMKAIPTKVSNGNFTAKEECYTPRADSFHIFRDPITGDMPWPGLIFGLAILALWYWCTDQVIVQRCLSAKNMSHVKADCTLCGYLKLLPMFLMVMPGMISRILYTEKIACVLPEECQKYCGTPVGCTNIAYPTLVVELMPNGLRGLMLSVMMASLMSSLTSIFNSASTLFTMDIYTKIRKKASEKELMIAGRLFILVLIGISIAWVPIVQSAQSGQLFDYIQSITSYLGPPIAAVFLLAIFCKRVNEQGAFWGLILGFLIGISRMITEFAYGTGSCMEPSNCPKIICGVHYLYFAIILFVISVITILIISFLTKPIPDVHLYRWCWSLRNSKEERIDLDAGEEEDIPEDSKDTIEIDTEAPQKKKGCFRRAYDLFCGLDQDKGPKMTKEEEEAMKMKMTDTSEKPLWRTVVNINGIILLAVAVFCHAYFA
Method: Walls of small intestinal mucosa from mice are inserted into an Ussing chamber and the SGLT1 mediated transepitehila currents are measured that are induced by addition of 0.1 mM D-glucose to the mucosal side. […] After washing glucose-induced transepithelial currents are measured.

For Glutamine-Cysteine-Proline [QCP], the “inward current in control oocytes not injected with hPEP1-cRNA” value [1] was “no inward currents”, the “inward current induced in oocytes expressing hPEPT1” value [1] was “significant inward currents” and the “inhibition of AMG uptake in the absence of BTXB” value [2] was “inhibited”. The “inhibition of AMG uptake in the presence of BTXB” value [2] was “no significant inhibition”, the “inhibition of glucose uptake expressed by hSGLT1” value [2] was “about 50%” and the “inhibition of hSGLT1 expressed AMG uptake” value [2] was 35-40%. For the same substance, the “inhibition of hSGLT1 expressed AMG uptake after stimulation of protein kinase C” value [2] was “not changed”, the “inhibition of hSGLT1 expressed AMG uptake with coexpressed dominant negative mutant of dynamin I” value [2] was “not changed” and the “inhibition of hSGLT1 expressed uptake of AMG after 3 h” value [2] was 60%. The “inhibition of hSGLT1 expressed uptake of AMG after 5 h” value [2] was “about 40%”, the “inhibition of hSGLT1 expressed uptake of AMG after 10 h” value [2] was 20-30% and the “inhibition of hSGLT1 in dependence of intracellular monosaccharide concentration” value [2] was “inhibits hSGLT1 at low or high concentrations of intracellular monosaccharides”. For the same substance, the “inhibitory effect on expression of hSGLT1 when the exocytotic pathway is blocked” value [2] was “could be prevented”, the “intracellular concentration of QCP giving 35-40% inhibition of hSGLT1 expressed glucose uptake” value [2] was “below 5 nM” and the “effect on glucose uptake expressed by rbSGLT1” value [3] was “same effect”. The “hOCT2 expressed [14C]TEA uptake after injection” value [4] was “appears not to be inhibited”, the “body weight after feeding” value [5] was “body weight is reduced” and the “effect on AMG uptake in oocytes in which hSGLT1 but not hPEPT1 was expressed” value [6] was “no effect”. For the same substance, the “inhibition of [14C]AMG uptake in oocytes expressing hSGLT1 plus hPEPT1” value [6] was “about 50%”, the “transepithelial flux of amino acids” value [7] was “inhibits transepithelial flux of amino acids” and the transepithelial glucose flux [8] was “inhibits transepithelial glucose flux”.
